Experimental findings from patent US20050256161A1, “Melanin concentrating hormone receptor antagonists” (priority 2003, published 2005) are described below.

For experiment [1], the target named is T1, rat MCH 1 receptor (rMCH1R) (Rattus norvegicus, UniProt P97639).
T1 construct: expressed in transfected cells; host or cells: HEK 293 (membrane preparation)
The experiment in a line: Ligand binding assay (125I native-MCH), rMCH. The settings on record: rMCH1R expressed in HEK 293, membranes, 0.2 nM 125I native-MCH. As to the method: (§1) Human embryonic kidney cells (293 total) expressing either human, rat, or mouse MCH receptor were harvested from 150 mm culture dishes using PBS. Spinning at 1500 rpm for 2 minutes initially pelleted cells. The resulting pellet was then homogenized in 15 mL ice cold sucrose buffer (25 mM HEPES, 0.3 M sucrose, pH 7.4) with a motorized, glass fitted, Teflon® homogenizer. The homogenate was centrifuged at 48,000×g at 4° C. for 10 minutes, resuspended in 15 mL assay buffer (25 mM HEPES, 10 mM MgCl2, 0.2% BSA, 0.1 mg/mL STI, 0.1 mg/mL Pefabloc®, 1 μM Phosphoramidon, pH 7.4) with a Tissue-Tearor® (Biospec Products) and centrifuged again at 48,000×g for 10 minutes. The pellet was homogenized for a third time in 15 mL assay buffer using the Tissue-Tearor® and again centrifuged at 48,000×g for 10 minutes. The resulting pellet was resuspended in assay buffer at a wet weight concentration of 10-20 mg/mL.
(§2) Binding assays were determined as described below using mouse, rat or human MCH 1 receptors (mMCH1R, rMCH1R, and hMCH1R, respectively) expressed in HEK 293; IC50 values were calculated.
(§3) Binding assays were performed in 96-well U-bottom plates. Membranes (100 μg tissue) were incubated at 30° C. for 90 minutes in assay buffer with various peptides in the presence of 0.2 nM 125I native-MCH (Perkin-Elmer Life Sciences, Boston, Mass.) in 100 μL total volume. Non-specific binding was assessed in the presence of 1 μM cold native-MCH. The reaction was terminated by rapid filtration through Unfilter-96 GF/C glass fiber filter plates (FilterMate® 196 Harvester, Packard Instrument Co., Meriden, Conn.) pre-soaked in PBS/0.5% BSA, followed by three washes with 300 μL ice-cold water. Bound radioactivity was determined using a TopCount® microplate scintillation and luminescence counter (Packard Instrument Co., Meriden, Conn.). Nonlinear regression analyses of drug concentration curves were performed using GraphPad Prism® (GraphPad Software, Inc., San Diego, Calif.).

The next experiment addresses T2, rat MCH1 receptor (Rattus norvegicus, UniProt P97639).
T2 construct: expressed in transfected cells
The experiment can be described thus: rMCH FLIPR calcium mobilization functional assay. In kind it is cell-based. The settings on record: CHOK1-Gqi cells. As to the method:
Pharmacological analyses were conducted using either a HT-PS100 device (Axiom Biotechnologies, San Diego, Calif.), which provides high-resolution dose-response fluorometric measurements of [Ca^++]i mobilization, or using a FLIPR® device (Molecular Devices, Sunnyvale, Calif.).
Materials: Pharmacological analysis was conducted using a FLIPR® device (Molecular Devices, Sunnyvale, Calif.). CHOK1-Gqi cells were stably transfected with the rat MCH1 receptor and maintained under G418 antibiotic pressure. FLIPR® assay buffer consisted of phenol red-free DMEM+2.5 mM probenecid. MCH peptide (Amgen, Inc.) was reconstituted in assay buffer and served as the positive agonist control for all experiments. Test compounds were prepared as 10 mM stocks in 100% DMSO and diluted to a top end working concentration of 10 μM in 96 well black, flat bottom, collagen-I coated plates (Becton Dickinson, Bedford, Mass.).
Methods: CHOK1-Gqi cells stably expressing MCH1R were maintained in Dulbeco's modified Eagle's medium (GIBCO/Life Technologies, Rockville, Md.) supplemented with 2 mM glutamine and 10% dialyzed fetal bovine serum (HyClone, Logan, Utah) at 37° C., 5% CO2. Cells were harvested by 10′ treatment with Versene (GIBCO/Life Technologies) followed by trituration, washing twice with cold (4° C.) hybridoma medium (Serum/Protein free, with L-glutamine, sodium bicarbonate, MOPS buffer) (Sigma-Aldrich Corp, St. Louis, Mo.) and replated onto 96 well black, flat bottom, collagen-I coated plates to a density of 10,000 cells/well. The cells were then loaded with the fluorescent calcium indicator Fura-2 (Molecular Probes, Eugene, Oreg.) at 1.6 μM for 60′ at room temperature. The loaded cells were then washed twice with 90 μl/well of wash buffer (1×HBSS, 20 mM HEPES, 2.5 mM probenecid).
Receptor-stimulated intracellular calcium responses were detected using FLIPR® by monitoring increases in the Fura-2 fluorescence response.
Test compounds were screened for MCH1R activity in the FLIPR® for both agonist and antagonist action. Agonist mode challenges were conducted at a maximum gradient concentration of 1 μM. Antagonist activity was tested by 10 min pre-incubation of cells at a compound concentration of defined to be 300× the EC50 of MCH (typically 1 μM), with subsequent introduction of MCH at a concentration 5-fold of EC50 as determined in preliminary experiments.
Schild experiments were conducted on the FLIPR® for selected compounds by co-administering antagonist compounds together with MCH peptide. Several fixed concentrations of antagonist compounds were prepared in 10-fold increments, and presented to the cells in a gradient of increasing MCH concentration. Values for compound pA2 were calculated by linear regression of MCH EC50s as a function of antagonist concentration.
On the technique in general: Calcium flux is commonly read through the fluorescence of an indicator in the cells.

Experiment [2] addresses T3, human MCH 1 receptor (hMCH1R) (Homo sapiens, UniProt Q99705).
T3 construct: expressed in transfected cells; host or cells: HEK 293 (membrane preparation)
The experiment in a line: Ligand binding assay (125I native-MCH), hMCH. The settings on record: hMCH1R expressed in HEK 293, membranes, 0.2 nM 125I native-MCH. How it is done: as §1, §2, §3

Each structure is given as a SMILES string.

T1 sequence (P97639 whole entry): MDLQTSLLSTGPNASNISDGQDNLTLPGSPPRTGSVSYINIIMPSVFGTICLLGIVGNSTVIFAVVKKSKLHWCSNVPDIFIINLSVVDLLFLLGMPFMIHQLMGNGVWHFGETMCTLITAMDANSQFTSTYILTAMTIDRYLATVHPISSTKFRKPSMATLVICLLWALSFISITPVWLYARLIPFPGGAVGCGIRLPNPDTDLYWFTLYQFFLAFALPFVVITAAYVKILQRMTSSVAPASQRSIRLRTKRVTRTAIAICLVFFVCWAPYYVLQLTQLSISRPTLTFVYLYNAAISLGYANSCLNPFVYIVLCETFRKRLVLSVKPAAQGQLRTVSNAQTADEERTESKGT
T2 sequence (P97639 whole entry): as above
T3 sequence (Q99705 whole entry): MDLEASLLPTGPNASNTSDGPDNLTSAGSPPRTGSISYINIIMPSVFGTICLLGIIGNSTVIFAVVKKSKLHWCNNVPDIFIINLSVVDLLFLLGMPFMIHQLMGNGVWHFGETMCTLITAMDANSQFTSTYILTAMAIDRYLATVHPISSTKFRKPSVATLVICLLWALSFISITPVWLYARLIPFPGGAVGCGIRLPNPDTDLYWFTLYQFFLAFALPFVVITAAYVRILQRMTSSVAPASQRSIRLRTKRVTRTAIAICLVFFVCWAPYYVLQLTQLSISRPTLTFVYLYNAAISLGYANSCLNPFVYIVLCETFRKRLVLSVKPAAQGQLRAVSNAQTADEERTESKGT

Consider `COc1ccccc1NC(=O)Nc1cc(C(=O)NCCN2CCCC2)ccc1Oc1ccc(C)c(C)c1` [Compound 30, 4-(3,4-dimethylphenoxy)-3-[3-(2-methoxyphenyl)ureido]-N-(2-pyrroliidin-1-yl-ethyl)benzamide], for which the IC50 in experiment [1] (threshold 100 μM or less) and in experiment [2] (threshold 100 μM or less) was at most 100 µM each time. At rat MCH1 receptor (threshold 100 μM or less), the Ki – broadly, a measure of affinity in units of concentration, obtained from inhibition or displacement – is at most 100 µM.
In the case of `O=C(Nc1cccc(F)c1)Nc1cc(C(=O)NCCN2CCCC2)ccc1Oc1ccccc1` [Compound 61, 3-[3-(3-fluorophenyl)ureido]-4-phenoxy-N-(2-pyrrolidin-1-yl-ethyl)benzamide], the IC50 (usually the midpoint of a concentration-inhibition curve) in experiment [1] (threshold 100 nM or less) was at most 0.1 µM; in experiment [1] (threshold 100 μM or less) it was at most 100 µM.
Consider `Cc1ccc(Oc2ccc(C(=O)NCCN3CCCC3)cc2NC(=O)CCC2CCCC2)cc1C` [Compound 12, 3-(3-cyclopentylpropionylamino)-4-(3,4-dimethylphenoxy)-N-(2-pyrrolidin-1-yl-ethyl)benzamide], for which the IC50 in experiment [1] (threshold 100 μM or less) and in experiment [2] (threshold 100 μM or less) was at most 100 µM each time.
On to `Cc1ccc(Oc2ccc(C(=O)NCCN3CCCC3)cc2NC(=O)Nc2ccc(-c3ccccc3)cc2)cc1C` [Compound 33], for which the IC50 in experiment [1] (threshold 100 μM or less) is at most 100 µM; in experiment [2] (threshold 100 nM or less), at most 0.1 µM; in experiment [2] (threshold 100 μM or less), at most 100 µM. The Ki on rat MCH1 receptor (threshold 100 μM or less) is at most 100 µM.
Consider `Cc1ccc(Oc2ccc(C(=O)NCCN3CCCC3)cc2NC(=O)N(C)c2ccccc2)cc1C` [Compound 43, 4-(3,4-dimethylphenoxy)-3-(3-methyl-3-phenylureido)-N-(2-pyrrolidin-1-yl-ethyl)benzamide], for which the IC50 in experiment [1] (threshold 100 μM or less) and in experiment [2] (threshold 100 μM or less) was at most 100 µM throughout.
For `CCNC(=O)Nc1cc(C(=O)NCCN2CCCC2)ccc1Oc1ccc(C)c(C)c1` [Compound 18, 4-(3,4-dimethylphenoxy)-3-(3-ethylureido)-N-(2-pyrrolidin-1-yl-ethyl)benzamide], the IC50 in experiment [1] (threshold 100 μM or less) and in experiment [2] (threshold 100 μM or less) was at most 100 µM each time.
In experiment [2] (threshold 100 μM or less), `Cc1ccc(Oc2ccc(C(=O)NCCN)cc2NC(=O)CCc2ccccc2)cc1C` [Compound 20, N-(2-aminoethyl)-4-(3,4-dimethylphenoxy)-3-(3-phenylpropionylamino)benzamide] registered an IC50 of at most 100 µM.
`Cc1ccc(Oc2ccc(C(=O)NCCN3CCCC3)cc2NC(=O)Nc2cccc(F)c2)cc1C` [Compound 39, 4-(3,4-dimethylphenoxy)-3-[3-(3-fluorophenyl)ureido]-N-(2-pyrrolidin-1-yl-ethyl)benzamide]: the IC50 in experiment [1] (threshold 100 nM or less) is at most 0.1 µM; in experiment [1] (threshold 100 μM or less), at most 100 µM; in experiment [2] (threshold 100 nM or less), at most 0.1 µM; in experiment [2] (threshold 100 μM or less) it was at most 100 µM. For the same compound, the figures for the Ki at rat MCH1 receptor (threshold 100 nM or less) and at rat MCH1 receptor (threshold 100 μM or less) were at most 0.1 µM and at most 100 µM, respectively.
Turning to `Cc1ccc(Oc2ccc(C(=O)NCCN3CCCC3)cc2NC(=O)Cc2ccccc2)cc1C` [Compound 13, 4-(3,4-dimethylphenoxy)-3-phenylacetylarnino-N-(2-pyrrolidin-1-yl-ethyl)benzamide], the IC50 in experiment [1] (threshold 100 μM or less) and in experiment [2] (threshold 100 μM or less) was at most 100 µM in each case.
With `Cc1ccc(Oc2ccc(C(=O)NCCN3CCCC3)cc2NC(=O)c2ccc3ccccc3c2)cc1C` [Compound 17, naphthalene-2-carboxylic acid [2-(3,4-dimethylphenoxy)-5-(2-pyrrolidin-1-yl-ethylcarbamoyl)phenyl]amide], the IC50 in experiment [1] (threshold 100 μM or less) and in experiment [2] (threshold 100 μM or less) was at most 100 µM in each case.
For `Cc1ccc(Oc2ccc(C(=O)NCCN3CCCC3)cc2NC(=O)/C=C/c2ccccc2)cc1C` [Compound 15, 4-(3,4-dimethylphenoxy)-3-(3-phenyl-acryloylamino)-N-(2-pyrrolidin-1-yl-ethyl)benzamide], the IC50 in experiment [1] (threshold 100 μM or less) and in experiment [2] (threshold 100 μM or less) was at most 100 µM each time. Also, the Ki at rat MCH1 receptor (threshold 100 nM or less) is at most 0.1 µM; at rat MCH1 receptor (threshold 100 μM or less), at most 100 µM.
With `Cc1ccc(Oc2ccc(C(=O)NCCN3CCCC3)cc2NC(=O)N(c2ccccc2)c2ccccc2)cc1C` [Compound 42, 4-(3,4-dimethylphenoxy)-3-(3,3-diphenylureido)-N-(2-pyrrolidin-1-yl-ethyl)benzamide], the IC50 in experiment [1] (threshold 100 μM or less) and in experiment [2] (threshold 100 μM or less) was at most 100 µM each time.
For `CC(=O)Nc1cc(C(=O)NCCN2CCCC2)ccc1Oc1ccc(C)c(C)c1` [Compound 10, 3-acetylamino-4-(3,4-dimethylphenoxy)-N-(2-pyrrolidin-1-yl-ethyl)benzamide], the IC50 in experiment [1] (threshold 100 μM or less) and in experiment [2] (threshold 100 μM or less) was at most 100 µM in each case.
For the compound `Cc1ccc(Oc2ccc(C(=O)NCCN3CCCC3)cc2NC(=O)Nc2ccc(Cl)cc2Cl)cc1C` [Compound 31, 3-[3-(2,4-dichlorophenyl)ureido]-4-(3,4-dimethylphenoxy)-N-(2-pyrrolidin-1-yl-ethyl)benzamide], the IC50 in experiment [1] (threshold 100 nM or less) was at most 0.1 µM; in experiment [1] (threshold 100 μM or less), at most 100 µM; in experiment [2] (threshold 100 nM or less), at most 0.1 µM; in experiment [2] (threshold 100 μM or less), at most 100 µM. Also, the Ki at rat MCH1 receptor (threshold 100 nM or less) is at most 0.1 µM; on rat MCH1 receptor (threshold 100 μM or less), at most 100 µM.
For the compound `O=C(NCCN1CCCC1)c1ccc(Oc2ccccc2)cc1` [Compound 8, 4-(phenyloxy)-N-(2-(1-pyrrolidinyl)ethyl)benzamide], the half-maximal inhibitory concentration (IC50) in experiment [2] (threshold 100 μM or less) was at most 100 µM.
Take `Cc1ccc(Oc2ccc(C(=O)NCCN3CCCC3)cc2NC(=O)Nc2ccc(Oc3ccccc3)cc2)cc1C` [Compound 32, 4-(3,4-dimethylphenoxy)-3-[3-(4-phenoxyphenyl)ureido]-N-(2-pyrrolidin-1-yl-ethyl)benzamide]: the values for the IC50 in experiment [1] (threshold 100 μM or less), in experiment [2] (threshold 100 nM or less) and in experiment [2] (threshold 100 μM or less) were at most 100 µM, at most 0.1 µM and at most 100 µM, respectively. For the same compound, the Ki at rat MCH1 receptor (threshold 100 nM or less) is at most 0.1 µM; on rat MCH1 receptor (threshold 100 μM or less) it was at most 100 µM.
With `O=C(CCc1ccccc1)Nc1cc(C(=O)NCCN2CCCC2)ccc1Oc1ccc2ccccc2c1` [Compound 22], the Ki on rat MCH1 receptor (threshold 100 μM or less) was at most 100 µM.
For `Cc1ccc(Oc2ccc(C(=O)NCCN3CCCC3)cc2NC(=O)[C@@H]2C[C@H]2c2ccccc2)cc1C` (stereo in doubt) [Compound 16, 4-(3,4-dimethylphenoxy)-3-[(2-phenyl-cyclopropanecarbonyl)amino]-N-(2-pyrrolidin-1-yl-ethyl)benzamide], the IC50 in experiment [1] (threshold 100 μM or less) and in experiment [2] (threshold 100 μM or less) was at most 100 µM throughout.
For the compound `O=C(Nc1cc(F)cc(F)c1)Nc1cc(C(=O)NCCN2CCCC2)ccc1Oc1ccc(Cl)c(Cl)c1` [Compound 66, 4-(3,4-dichlorophenoxy)-3-[3-(3,5-difluorophenyl)ureido]-N-(2-pyrrolidin-1-yl-ethyl)benzamide], the IC50 in experiment [1] (threshold 100 nM or less) was at most 0.1 µM; in experiment [1] (threshold 100 μM or less), at most 100 µM; in experiment [2] (threshold 100 nM or less) it was at most 0.1 µM; in experiment [2] (threshold 100 μM or less), at most 100 µM.
